Measurements taken from patent publication US7786175B2, “Anti-atherosclerosis composition containing carotenoids and method for inhibiting LDL oxidation” (Lycored Natural Products, priority 2001, dated 2010).

What was measured:
LDL [1] = experiment: Copper ion-induced LDL oxidation, TBARS assay; type: biochemical; conditions: for effect on LDL oxidation (TBARS), in words: single compounds at low concentration mimicking Lyc-O-Mato: lycopene 10 μg/ml, vitamin E 2.5 μg/ml, β-carotene 0.4 μg/ml
Method: (§1) All studied compounds were dissolved in THF to a stock solution of 1 mg/ml. LDL was dialyzed for 24 hours against phosphate buffered-saline (PBS) prior to its oxidation to remove any EDTA that can interfere with the oxidation. LDL (100 μg protein/ml), was incubated in the absence (Control) or presence of increasing concentrations of each one of the studied compounds, as well as, in various combinations including 2, 3 or the 4 constituents at the desired natural distribution. LDL oxidation was induced by the addition of 5 μM of CuSO4, for 2 hours at 37° C. LDL oxidation was terminated by adding 1 mM Na2 EDTA and immediate refrigeration at 4° C. The extent of LDL oxidation was then determined by measuring the amount of thiobarbituric acid reactive substances (TBARS) and of lipid peroxides (PD) formed. Control LDL was supplemented with only THF.
(§2) LDL (100 μg of protein/mL) was pre-incubated for 30 minutes at 37° C. with increasing concentrations of crystalline pure lycopene, or with tomato oleoresin (at equivalent lycopene concentrations), followed by a further incubation for 2 hours at 37° C. in the presence of 5 μmol/L of CuSO4. LDL oxidation was measured by the TBARS (A) or by the lipid peroxides (B) assays respectively. Results are given as mean±SD (n=3). Addition of increasing concentrations of lycopene inhibited copper ion-induced LDL oxidation moderately, in a dose-dependent manner.

LDL [2] = experiment: Copper ion-induced LDL oxidation, lipid peroxides assay; type: biochemical; conditions: for effect on LDL oxidation (lipid peroxides), in words: single compounds at low concentration mimicking Lyc-O-Mato: lycopene 10 μg/ml, vitamin E 2.5 μg/ml, β-carotene 0.4 μg/ml
Method: as §1, §2

[3] = 50 μmol/L of lycopene, LDL 100 μg of protein/mL, 5 μmol/L CuSO4, 2 hours at 37° C.

Compound | maximal inhibition in TBARS formation (LDL [1]; [3]) [%] | effect on LDL oxidation (TBARS), in words (LDL [1]) | maximal inhibition in lipid peroxides formation (LDL [2]; [3]) [%] | effect on LDL oxidation (lipid peroxides), in words (LDL [2]) | effect on LDL oxidation, in words (LDL [1]; Example 5: β-carotene alone or in combination with vitamin E)
CC(C)=CCC/C(C)=C/C=C/C(C)=C/C=C/C(C)=C/C=C/C=C(C)/C=C/C=C(C)/C=C/C=C(\C)CCC=C(C)C [lycopene] | 22 | did not significantly affect LDL oxidation | 27 | did not significantly affect LDL oxidation | –
CC1=C(/C=C/C(C)=C/C=C/C(C)=C/C=C/C=C(C)/C=C/C=C(C)/C=C/C2=C(C)CCCC2(C)C)C(C)(C)CCC1 [β-carotene] | – | did not significantly affect LDL oxidation | – | did not significantly affect LDL oxidation | did not affect at all LDL oxidation
vitamin E | – | did not significantly affect LDL oxidation | – | did not significantly affect LDL oxidation | –
